Experimental data published in ChEMBL document CHEMBL4265961, “Efficient optimization of pyrazolo[3,4-d]pyrimidines derivatives as c-Src kinase inhibitors in neuroblastoma treatment” (Bioorg Med Chem Lett, 2018).
Values after ≈ are worked out from the molar mass of the structure shown. Active and inactive are the calls of the source. The rule behind the calls is not given here.

Key:
[1] = Metabolic stability in human liver microsomes after 60 mins in presence of NADPH by UV/LC-MS analysis; type: ADME, microsome; settings: read-out: Stability
[2] = Apparent permeability of the compound after 5 hrs by PAMPA; type: ADME
[3] = Aqueous solubility in water at 1 mg after 24 hrs at 20 degC by UV/LC-MS analysis; type: physicochemical
SH-SY5Y [4] = assay: Antiproliferative activity against human SH-SY5Y cells after 72 hrs by nucleo cell counting method
SH-SY5Y [5] = assay: Antiproliferative activity against human SH-SY5Y cells at 1 to 10 uM after 72 hrs by nucleo cell counting method; type: functional, cell-based
SH-SY5Y [6] = assay: Cell cycle arrest in human SH-SY5Y cells assessed as accumulation at G1 phase after 48 hrs by propidium iodide staining based flow cytometry; type: functional

remaining at 1 h [1] [%]	Papp at 5 h [2] [×10⁻⁶ cm/s]	IC50 (SH-SY5Y [4]) [µM]	Structure (SMILES)	solubility at 24 h [3] [µg/mL]	Activity (SH-SY5Y [5])	Activity (SH-SY5Y [6])
98.4	2.2	–	CC(Cn1ncc2c(Nc3cc(O)ccc3Cl)nc(NCCN)nc21)c1ccccc1 (stereo not drawn)	0.1 (≈ 0.228 µM)	–	–
98.7	4.44	–	Oc1cccc(Nc2nc(SCCN3CCOCC3)nc3c2cnn3CC(Cl)c2ccccc2)c1 (stereo not drawn)	0.197 (≈ 0.385 µM)	–	–
96.9	9.74	6.6	Oc1ccc(Cl)c(Nc2nc(SCCN3CCOCC3)nc3c2cnn3CC(Cl)c2ccccc2)c1 (stereo not drawn)	–	Active	–
96.4	3.23	–	CSc1nc(Nc2cc(O)ccc2Cl)c2cnn(CC(Cl)c3ccccc3)c2n1 (stereo not drawn)	–	–	–
99	6.81	–	CC(Cn1ncc2c(Nc3cccc(O)c3)nc(SCCN3CCOCC3)nc21)c1ccccc1 (stereo not drawn)	0.1 (≈ 0.204 µM)	–	–
97.2	2.7	3.1	OCCNc1nc(Nc2cc(O)ccc2Cl)c2cnn(CC(Cl)c3ccccc3)c2n1 (stereo not drawn)	0.042 (≈ 0.0914 µM)	Active	Dose-dependent effect
93.5	–	–	CC(C)Sc1nc(Nc2cccc(O)c2)c2cnn(CC(Cl)c3ccccc3)c2n1 (stereo not drawn)	–	–	–
92.7	8.33	6.7	CSc1nc(Nc2cc(O)ccc2Cl)c2cnn(CC(C)c3ccccc3)c2n1 (stereo not drawn)	–	Active	–

Structure (SMILES)	remaining at 1 h [1] [%]	Papp at 5 h [2] [×10⁻⁶ cm/s]	IC50 (SH-SY5Y [4]) [µM]	solubility at 24 h [3] [µg/mL]	Activity (SH-SY5Y [5])	Activity (SH-SY5Y [6])
CC(Cn1ncc2c(Nc3cc(O)ccc3Cl)nc(NCCO)nc21)c1ccccc1 (stereo not drawn)	97.9	0.1	–	0.103 (≈ 0.235 µM)	–	–
CC(Cn1ncc2c(Nc3cc(O)ccc3Cl)nc(SCCN3CCOCC3)nc21)c1ccccc1 (stereo not drawn)	97.9	11.2	–	0.031 (≈ 0.059 µM)	–	–
CC(Cn1ncc2c(Nc3cccc(O)c3)nc(NCCO)nc21)c1ccccc1 (stereo not drawn)	99.4	0.2	–	134 (≈ 332 µM)	–	–
Oc1ccc(Cl)c(Nc2ncnc3c2cnn3CC(Cl)c2ccccc2)c1 (stereo not drawn)	86.3	4.39	–	0.053 (≈ 0.132 µM)	–	–
